Results: patent publication EP0908457B1, “3-(1,2-benzisothiazol- and isoxazol-5-Y1)-2,4(1H,3H)-pyrimidinedione or thione and 3-(1,2-benzisothiazol- and isoxazol-5-y1)-4(3H)-pyrimidinone or thione herbicidal agents” (BASF AKTIENGESELLSCHAFT, priority 1997, dated 1999)

Tests used:
[1] = tested on: Echinochloa oryzoides (Ard.) Fritsch.; test: Preemergence weed control under flooded paddy conditions, ECHORC (Watergrass (Calif.)); assay type: in vivo; conditions: flooded paddy; for ECHORC: herbicidal effect rating 0-9, three to four weeks after treatment; for herbicidal effect rating, ECHORC / ECHORC herbicidal rating: rated three to four weeks after treatment; on herbicidal effect rating, ECHORC: meaning of each grade not given here
Cyperus iria = test: Preemergence weed control under flooded paddy conditions, CYPIR (Rice Flatsedge); assay type: in vivo; conditions: flooded paddy; for CYPIR: herbicidal effect rating 0-9, three to four weeks after treatment; for herbicidal effect rating, CYPIR / CYPIR herbicidal rating: rated three to four weeks after treatment; on herbicidal effect rating, CYPIR: meaning of each grade not given here
[2] = tested on: Cyperus serotinus, Rottb.; test: Preemergence weed control under flooded paddy conditions, CYPSE (Flatsedge); assay type: in vivo; conditions: for CYPSE: herbicidal effect rating 0-9, three to four weeks after treatment; for herbicidal effect rating, CYPSE / CYPSE herbicidal rating: rated three to four weeks after treatment; on herbicidal effect rating, CYPSE: meaning of each grade not given here
[3] = tested on: Monochoria vaginalis, Presl.; test: Preemergence weed control under flooded paddy conditions, MOOVA (Monochoria); assay type: in vivo; conditions: flooded paddy; for MOOVA: herbicidal effect rating 0-9, three to four weeks after treatment; for herbicidal effect rating, MOOVA / MOOVA herbicidal rating: rated three to four weeks after treatment; on herbicidal effect rating, MOOVA: meaning of each grade not given here
Sagittaria pygmaea, L. = test: Preemergence weed control under flooded paddy conditions, SAGPY (Arrowhead (Pygmaea)); assay type: in vivo; conditions: flooded paddy; for SAGPY: herbicidal effect rating 0-9, three to four weeks after treatment; for herbicidal effect rating, SAGPY / SAGPY herbicidal rating: rated three to four weeks after treatment; on herbicidal effect rating, SAGPY: meaning of each grade not given here
[4] = tested on: Oryza sativa, (L.) Tebonnet; test: Rice tolerance to post-transplant applications under flooded paddy conditions (Example 187), ORYSAT (Rice, Tebonnet); conditions: for ORYSAT: herbicidal effect rating 0-9, three to four weeks after treatment; for herbicidal effect rating, ORYSAT (rice tolerance) / ORYSAT herbicidal rating (rice tolerance) / herbicidal effect rating ORYSAT: rated three to four weeks after treatment
[5] = 0.0320 kg/ha, preemergence weeds
[6] = 0.0620 kg/ha, preemergence weeds
[7] = 0.1250 kg/ha, preemergence weeds
[8] = 0.2500 kg/ha, preemergence weeds
[9] = Rate 0.0320 kg/ha, preemergence
[10] = Rate 0.0620 kg/ha, preemergence
[11] = Rate 0.1250 kg/ha, preemergence
[12] = Rate 0.2500 kg/ha, preemergence
[13] = Rate 0.0320 kg/ha, preemergence weeds
[14] = Rate 0.0620 kg/ha, preemergence weeds
[15] = Rate 0.1250 kg/ha, preemergence weeds
[16] = Rate 0.2500 kg/ha, preemergence weeds

Cn1c(C(F)(F)F)cc(=O)n(-c2ccc3snc(C4(C#N)CC4)c3c2)c1=O [Example 446, Cyclopropanecarbonitrile, 1-{5-[3,6-dihydro-3-methyl-2,6-dioxo-4-(trifluoromethyl)-1(2H)-pyrimidinyl]-1,2-benzisothiazol-3-yl}-]
ECHORC [1, 5]: 6.0 | ECHORC [1, 6]: 6.0 | ECHORC [1, 7]: 7.0 | ECHORC [1, 8]: 9.0 | CYPIR (Cyperus iria; [5]): 9.0 | CYPIR (Cyperus iria; [6]): 9.0 | CYPIR (Cyperus iria; [7]): 9.0 | CYPIR (Cyperus iria; [8]): 9.0 | CYPSE [2, 5]: 9.0 | CYPSE [2, 6]: 9.0 | CYPSE [2, 7]: 9.0 | CYPSE [2, 8]: 9.0 | MOOVA [3, 5]: 9.0 | MOOVA [3, 6]: 9.0 | MOOVA [3, 7]: 9.0 | MOOVA [3, 8]: 9.0 | SAGPY (Sagittaria pygmaea, L.; [5]): 9.0 | SAGPY (Sagittaria pygmaea, L.; [6]): 9.0 | SAGPY (Sagittaria pygmaea, L.; [7]): 9.0 | SAGPY (Sagittaria pygmaea, L.; [8]): 9.0 | ORYSAT ([4]; 0.0320 kg/ha): 6.0 | ORYSAT ([4]; 0.0620 kg/ha): 7.0 | ORYSAT ([4]; 0.1250 kg/ha): 9.0 | ORYSAT ([4]; 0.2500 kg/ha): 9.0

Cc1ccc(O)c(-c2noc3ccc(-n4c(=O)cc(C(F)(F)F)n(C)c4=O)c(Cl)c23)c1 [Example 41, 3-[4-Chloro-3-(6-hydroxy-m-tolyl)-1,2-benzisoxazol-5-yl]-1-methyl-6-(trifluoromethyl)-2,4(1H,3H)-pyrimidinedione]
herbicidal effect rating, ECHORC ([1]; 0.0313 kg/ha, preemergence): 0.0 | herbicidal effect rating, ECHORC ([1]; 0.0625 kg/ha, preemergence): 0.0 | herbicidal effect rating, ECHORC ([1]; 0.1250 kg/ha, preemergence): 2.0 | herbicidal effect rating, ECHORC ([1]; 0.2500 kg/ha, preemergence): 6.0 | herbicidal effect rating, CYPIR (Cyperus iria; 0.0313 kg/ha, preemergence): 0.0 | herbicidal effect rating, CYPIR (Cyperus iria; 0.0625 kg/ha, preemergence): 0.0 | herbicidal effect rating, CYPIR (Cyperus iria; 0.1250 kg/ha, preemergence): 1.0 | herbicidal effect rating, CYPIR (Cyperus iria; 0.2500 kg/ha, preemergence): 2.0 | herbicidal effect rating, CYPSE ([2]; 0.0313 kg/ha, preemergence): 0.0 | herbicidal effect rating, CYPSE ([2]; 0.0625 kg/ha, preemergence): 0.0 | herbicidal effect rating, CYPSE ([2]; 0.1250 kg/ha, preemergence): 0.0 | herbicidal effect rating, CYPSE ([2]; 0.2500 kg/ha, preemergence): 0.0 | herbicidal effect rating, MOOVA ([3]; 0.0313 kg/ha, preemergence): 0.0 | herbicidal effect rating, MOOVA ([3]; 0.0625 kg/ha, preemergence): 2.0 | herbicidal effect rating, MOOVA ([3]; 0.1250 kg/ha, preemergence): 4.0 | herbicidal effect rating, MOOVA ([3]; 0.2500 kg/ha, preemergence): 9.0 | herbicidal effect rating, SAGPY (Sagittaria pygmaea, L.; 0.0313 kg/ha, preemergence): 0.0 | herbicidal effect rating, SAGPY (Sagittaria pygmaea, L.; 0.0625 kg/ha, preemergence): 0.0 | herbicidal effect rating, SAGPY (Sagittaria pygmaea, L.; 0.1250 kg/ha, preemergence): 0.0 | herbicidal effect rating, SAGPY (Sagittaria pygmaea, L.; 0.2500 kg/ha, preemergence): 0.0 | herbicidal effect rating, ORYSAT (rice tolerance) ([4]; 0.0313 kg/ha): 0.0 | herbicidal effect rating, ORYSAT (rice tolerance) ([4]; 0.0625 kg/ha): 0.0 | herbicidal effect rating, ORYSAT (rice tolerance) ([4]; 0.1250 kg/ha): 0.0 | herbicidal effect rating, ORYSAT (rice tolerance) ([4]; 0.2500 kg/ha): 0.0

C#CCOC(=O)COc1cc2c(cc1-c1nsc3ccc(-n4c(=O)cc(C(F)(F)F)n(C)c4=O)cc13)CCC2 [Example 436, Acetic acid, {{6-{5-[3,6-dihydro-3-methyl-2,6-dioxo-4-(trifluoromethyl)-1(2H)-pyrimidinyl]-1,2-benzisothiazol-3-yl}-5-indanyl}oxy}-, 2-propynyl ester]
ECHORC [1, 5]: 6.0 | ECHORC [1, 6]: 9.0 | ECHORC [1, 7]: 9.0 | ECHORC [1, 8]: 9.0 | CYPIR (Cyperus iria; [5]): 0.0 | CYPIR (Cyperus iria; [6]): 2.0 | CYPIR (Cyperus iria; [7]): 7.0 | CYPIR (Cyperus iria; [8]): 7.0 | CYPSE [2, 5]: 4.0 | CYPSE [2, 6]: 6.0 | CYPSE [2, 8]: 6.0 | MOOVA [3, 5]: 9.0 | MOOVA [3, 6]: 9.0 | MOOVA [3, 7]: 9.0 | MOOVA [3, 8]: 9.0 | SAGPY (Sagittaria pygmaea, L.; [5]): 0.0 | SAGPY (Sagittaria pygmaea, L.; [6]): 0.0 | SAGPY (Sagittaria pygmaea, L.; [7]): 2.0 | SAGPY (Sagittaria pygmaea, L.; [8]): 3.0 | ORYSAT ([4]; 0.0320 kg/ha): 3.0 | ORYSAT ([4]; 0.0620 kg/ha): 5.0 | ORYSAT ([4]; 0.1250 kg/ha): 7.0 | ORYSAT ([4]; 0.2500 kg/ha): 6.0

Cn1c(C(F)(F)F)cc(=O)n(-c2ccc3snc(C(C)(C)C(=O)OCc4ccccn4)c3c2)c1=O [Example 510, 1,2-Benzisothiazole-3-acetic acid, 5-[3,6-dihydro-3-methyl-2,6-dioxo-4-(trifluoromethyl)-1(2H)-pyrimidinyl]-alpha,alpha-dimethyl-, 2-pyridylmethyl ester]
ECHORC herbicidal rating ([1]; 0.0320 kg/ha, preemergence): 9.0 | ECHORC herbicidal rating ([1]; 0.0620 kg/ha, preemergence): 9.0 | ECHORC herbicidal rating ([1]; 0.1250 kg/ha, preemergence): 9.0 | ECHORC herbicidal rating ([1]; 0.2500 kg/ha, preemergence): 9.0 | CYPIR herbicidal rating (Cyperus iria; 0.0320 kg/ha, preemergence): 0.0 | CYPIR herbicidal rating (Cyperus iria; 0.0620 kg/ha, preemergence): 3.0 | CYPIR herbicidal rating (Cyperus iria; 0.1250 kg/ha, preemergence): 7.0 | CYPIR herbicidal rating (Cyperus iria; 0.2500 kg/ha, preemergence): 8.0 | CYPSE herbicidal rating ([2]; 0.0320 kg/ha, preemergence): 0.0 | CYPSE herbicidal rating ([2]; 0.0620 kg/ha, preemergence): 0.0 | CYPSE herbicidal rating ([2]; 0.1250 kg/ha, preemergence): 3.0 | CYPSE herbicidal rating ([2]; 0.2500 kg/ha, preemergence): 5.0 | MOOVA herbicidal rating ([3]; 0.0320 kg/ha, preemergence): 6.0 | MOOVA herbicidal rating ([3]; 0.0620 kg/ha, preemergence): 7.0 | MOOVA herbicidal rating ([3]; 0.1250 kg/ha, preemergence): 9.0 | MOOVA herbicidal rating ([3]; 0.2500 kg/ha, preemergence): 9.0 | SAGPY herbicidal rating (Sagittaria pygmaea, L.; 0.0320 kg/ha, preemergence): 3.0 | SAGPY herbicidal rating (Sagittaria pygmaea, L.; 0.0620 kg/ha, preemergence): 4.0 | SAGPY herbicidal rating (Sagittaria pygmaea, L.; 0.1250 kg/ha, preemergence): 5.0 | SAGPY herbicidal rating (Sagittaria pygmaea, L.; 0.2500 kg/ha, preemergence): 6.0 | ORYSAT herbicidal rating (rice tolerance) ([4]; 0.0320 kg/ha): 0.0 | ORYSAT herbicidal rating (rice tolerance) ([4]; 0.0620 kg/ha): 2.0 | ORYSAT herbicidal rating (rice tolerance) ([4]; 0.1250 kg/ha): 4.0 | ORYSAT herbicidal rating (rice tolerance) ([4]; 0.2500 kg/ha): 8.0

Cc1ccc(OC(C)C(=O)NS(=O)(=O)C(C)C)c(-c2nsc3ccc(-n4c(=O)cc(C(F)(F)F)n(C)c4=O)cc23)c1 (centres unmarked) [Example 568, Propionamide, 2-{{2-{5-[3,6-dihydro-3-methyl-2,6-dioxo-4-(trifluoromethyl)-1(2H)-pyrimidinyl]-1,2-benzisothiazol-3-yl}-p-tolyl}oxy}-N-(isopropylsulfonyl)-]
herbicidal effect rating, ECHORC [1, 9]: 0.0 | herbicidal effect rating, ECHORC [1, 10]: 3.0 | herbicidal effect rating, ECHORC [1, 11]: 5.0 | herbicidal effect rating, ECHORC [1, 12]: 6.0 | herbicidal effect rating, CYPIR (Cyperus iria; [9]): 0.0 | herbicidal effect rating, CYPIR (Cyperus iria; [10]): 0.0 | herbicidal effect rating, CYPIR (Cyperus iria; [11]): 5.0 | herbicidal effect rating, CYPIR (Cyperus iria; [12]): 7.0 | herbicidal effect rating, CYPSE [2, 9]: 0.0 | herbicidal effect rating, CYPSE [2, 10]: 0.0 | herbicidal effect rating, CYPSE [2, 11]: 0.0 | herbicidal effect rating, CYPSE [2, 12]: 0.0 | herbicidal effect rating, MOOVA [3, 9]: 0.0 | herbicidal effect rating, MOOVA [3, 10]: 9.0 | herbicidal effect rating, MOOVA [3, 11]: 9.0 | herbicidal effect rating, MOOVA [3, 12]: 9.0 | herbicidal effect rating, SAGPY (Sagittaria pygmaea, L.; [9]): 0.0 | herbicidal effect rating, SAGPY (Sagittaria pygmaea, L.; [10]): 0.0 | herbicidal effect rating, SAGPY (Sagittaria pygmaea, L.; [11]): 0.0 | herbicidal effect rating, SAGPY (Sagittaria pygmaea, L.; [12]): 0.0 | herbicidal effect rating ORYSAT ([4]; Rate 0.0320 kg/ha): 0.0 | herbicidal effect rating ORYSAT ([4]; Rate 0.0620 kg/ha): 0.0 | herbicidal effect rating ORYSAT ([4]; Rate 0.1250 kg/ha): 1.0 | herbicidal effect rating ORYSAT ([4]; Rate 0.2500 kg/ha): 3.0

Cn1c(C(F)(F)F)cc(=O)n(-c2ccc3snc(C(=O)NS(=O)(=O)Cc4ccccc4)c3c2)c1=O [Example 341, 1,2-Benzisothiazole-3-carboxamide, N-(benzylsulfonyl)-5-[3,6-dihydro-3-methyl-2,6-dioxo-4-(trifluoromethyl)-1(2H)-pyrimidinyl]-]
herbicidal effect rating, ECHORC [1, 13]: 3.0 | herbicidal effect rating, ECHORC [1, 14]: 5.5 | herbicidal effect rating, ECHORC [1, 15]: 8.0 | herbicidal effect rating, ECHORC [1, 16]: 8.5 | herbicidal effect rating, CYPIR (Cyperus iria; [13]): 1.0 | herbicidal effect rating, CYPIR (Cyperus iria; [14]): 2.0 | herbicidal effect rating, CYPIR (Cyperus iria; [15]): 3.5 | herbicidal effect rating, CYPIR (Cyperus iria; [16]): 4.0 | herbicidal effect rating, CYPSE [2, 13]: 0.0 | herbicidal effect rating, CYPSE [2, 14]: 0.0 | herbicidal effect rating, CYPSE [2, 15]: 2.5 | herbicidal effect rating, CYPSE [2, 16]: 3.5 | herbicidal effect rating, MOOVA [3, 13]: 7.0 | herbicidal effect rating, MOOVA [3, 14]: 9.0 | herbicidal effect rating, MOOVA [3, 15]: 9.0 | herbicidal effect rating, MOOVA [3, 16]: 9.0 | herbicidal effect rating, SAGPY (Sagittaria pygmaea, L.; [13]): 1.0 | herbicidal effect rating, SAGPY (Sagittaria pygmaea, L.; [14]): 4.5 | herbicidal effect rating, SAGPY (Sagittaria pygmaea, L.; [15]): 4.5 | herbicidal effect rating, SAGPY (Sagittaria pygmaea, L.; [16]): 4.5 | herbicidal effect rating ORYSAT ([4]; Rate 0.0320 kg/ha): 1.5 | herbicidal effect rating ORYSAT ([4]; Rate 0.0620 kg/ha): 2.5 | herbicidal effect rating ORYSAT ([4]; Rate 0.1250 kg/ha): 3.0 | herbicidal effect rating ORYSAT ([4]; Rate 0.2500 kg/ha): 3.5
